Data taken from patent US20240199630A1, “IMIDAZO[1,2-B]PYRIDAZINE BASED TRICYCLIC COMPOUNDS AS INHIBITORS OF HASPIN AND THERAPEUTIC USES THEREOF” (FUNDACIÓN DEL SECTOR PÚBLICO ESTATAL CENTRO NACIONAL DE …, priority 2021, published 2024).

Key:
[1] = molecular target: HASPIN (Homo sapiens (Human), UniProt Q8TF76); assay: HASPIN biochemical assay (ADP-Glo, HASPIN autophosphorylation); details: ATP 150 μM, 60 min at 30° C.
Description: HASPIN biochemical Assay: The biochemical assay to measure HASPIN activity relies on the ADP-Glo™ assay kit (Promega) that determines the amount of ADP as direct product of the kinase enzyme activity. Assay conditions were as indicated by the kit manufacturers with the following adaptations for the kinase activity step: Kinase assay buffer and assay volume (15 mM HEPES pH 7.5, 20 mM NaCl, 1 mM EGTA, 0.02% TWEEN 20, 10 mM MgCl2, 0.1 mg/ml BGG)/25 μL assay volume). Incubation time and temperature: 60 min at 30° C. HASPIN final concentration: 0.9 μg/mL. ATP final concentration: 150 μM. HASPIN autophosphorylation was measured. Assays were performed in 384-well plates. The final outcome of the coupled reactions provided by the kit is the release of luciferase and has been measured with a multilabel HTS counter Victor V/Envision. Values were normalized against the control activity included (100% HASPIN activity, without compound). Values were plotted against the inhibitor concentration and fit to a sigmoid dose-response curve using Activity base by IDBS software.

[2] = molecular target: PIM1 (Homo sapiens (Human), UniProt P11309); assay: PIM1 activity, methodology of WO2013/005041; assay type: biochemical; details: compounds from the present invention
Sequence of PIM1 (P11309 whole entry, species assumed): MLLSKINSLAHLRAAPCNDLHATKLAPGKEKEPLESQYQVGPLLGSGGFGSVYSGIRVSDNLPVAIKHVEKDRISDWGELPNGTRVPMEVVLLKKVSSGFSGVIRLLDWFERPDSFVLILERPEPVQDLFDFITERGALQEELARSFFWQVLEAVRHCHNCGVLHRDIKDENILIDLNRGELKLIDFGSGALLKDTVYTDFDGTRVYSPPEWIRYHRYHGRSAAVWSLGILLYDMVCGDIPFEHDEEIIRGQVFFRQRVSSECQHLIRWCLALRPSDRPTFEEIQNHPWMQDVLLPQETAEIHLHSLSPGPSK

[3] = tested on: MV4:11 (AML cell line); assay: Combination viability assay (CellTiter-Glo), Bliss combination index; details: MV4:11 cell line, 72 h; agent 1 μM combined with compound 3 at 2 μM; CI<1 synergism
Description: The cells were harvested just before reaching confluency, counted with a haemocytometer and diluted with media. Cells were then seeded in 96-well microtiter plates at a density of 5,000 cells/well. Cells were incubated for 24 hours before adding the compounds. Compounds were weighed out and diluted with DMSO to a final concentration of 10 mM. From here a “mother plate” was prepared at 200X the final concentration in the culture. The final concentration of DMSO in the tissue culture media should not exceed 1%. […] Each compound was assayed in duplicate. Cells were exposed to the compounds for 72 h and then processed for CellTiter-Glo® Luminescent Cell Viability Assay (Promega) read out according to manufacturer's Instruction and read on EndVision (Perkin Elmer). Percentage of viability inhibition was calculated using ActivityBase from IDBS. Potential synergy between drugs was evaluated by calculating the combination index (CI) based on the Bliss Independence model, whereby the CI was calculated with the following equation:
where Ea indicates the viability effect of drug A, Eb indicates the viability effect of drug B and Eab indicates the viability effect of the drug combination. CI<1 indicates synergism, CI=1 indicates additivity and CI>1 indicates antagonism.

[4] = molecular target: intracellular HASPIN (phosphorylation of the HASPIN substrate H3T3) (Homo sapiens (Human), UniProt Q8TF76); assay: Cellular HASPIN inhibition assay (phosphorylation of H3T3), western blot in MV4:11 cells; assay type: cell-based; details: 8 hours of treatment, read-out: pH3T3 EC50
Sequence of intracellular HASPIN (phosphorylation of the HASPIN substrate H3T3) (Q8TF76 whole entry): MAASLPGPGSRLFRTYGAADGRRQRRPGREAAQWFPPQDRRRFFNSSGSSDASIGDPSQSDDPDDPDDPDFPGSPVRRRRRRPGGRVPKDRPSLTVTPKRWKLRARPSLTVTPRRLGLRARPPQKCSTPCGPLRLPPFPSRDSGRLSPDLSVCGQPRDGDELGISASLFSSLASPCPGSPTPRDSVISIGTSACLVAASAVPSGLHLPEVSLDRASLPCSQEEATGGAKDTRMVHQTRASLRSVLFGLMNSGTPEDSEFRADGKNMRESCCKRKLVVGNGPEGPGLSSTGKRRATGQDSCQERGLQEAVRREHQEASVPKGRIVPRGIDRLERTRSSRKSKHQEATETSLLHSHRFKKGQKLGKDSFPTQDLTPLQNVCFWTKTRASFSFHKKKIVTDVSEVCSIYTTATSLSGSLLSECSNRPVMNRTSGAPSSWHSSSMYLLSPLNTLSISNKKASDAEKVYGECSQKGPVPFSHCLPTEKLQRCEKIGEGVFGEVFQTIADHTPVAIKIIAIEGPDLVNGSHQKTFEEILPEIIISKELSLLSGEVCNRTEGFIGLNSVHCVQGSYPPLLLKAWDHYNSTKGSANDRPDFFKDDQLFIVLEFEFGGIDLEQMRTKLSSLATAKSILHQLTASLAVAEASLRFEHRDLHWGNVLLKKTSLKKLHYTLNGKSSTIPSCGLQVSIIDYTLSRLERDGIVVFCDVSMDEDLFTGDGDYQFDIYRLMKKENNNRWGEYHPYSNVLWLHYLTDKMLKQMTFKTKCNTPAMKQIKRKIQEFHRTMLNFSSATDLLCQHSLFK
Description: 10 min. The protein content of the lysates is determined by DC protein assay (Biorad, Ref. 5000116).

Sequence of HASPIN (Q8TF76 whole entry): as above

SMILES | IC50 [2] [nM] | CI (combination index) [3] | also measured
Cc1nc2c3c(c(NCC4(F)CCNCC4)nn2c1-c1ccnc(Cl)c1)CC(C)O3 (racemic) [Compound 33, [3-(2-Chloro-pyridin-4-yl)-2,7-dimethyl-6,7-dihydro-8-oxa-1,3a,4-triaza-as-indacen-5-yl]-(4-fluoro-piperidin-4-ylmethyl)-amine] | – | – | IC50 [1]: 6.37 nM
Cc1nc2c3c(c(N4CCC[C@H](CN)C4)nn2c1-c1ccnc(Cl)c1)CCCO3 [Compound 4, C-{(R)-1-[3-(2-Chloro-pyridin-4-yl)-2-methyl-7,8-dihydro-6H-9-oxa-1,3a,4-triaza-cyclopenta[a]naphthalen-5-yl]-piperidin-3-yl}-methylamine] | 2270 | – | –
C#Cc1cccc(Nc2ncnc3cc(OCCOC)c(OCCOC)cc23)c1 [ERLOTINIB, Erlotinib] | – | 0.62 | –
Cc1nc(NC(=O)N2CCC[C@H]2C(N)=O)sc1-c1ccnc(C(C)(C)C(F)(F)F)c1 [BYL-719, Alpelisib] | – | 0.59 | –
C[C@]12CC[C@@H]3c4ccc(O)cc4C[C@@H](CCCCCCCCC[S+]([O-])CCCC(F)(F)C(F)(F)F)[C@H]3[C@@H]1CC[C@@H]2O (some centres unmarked) [Fulvestrant] | – | 0.60 | –
O=C(CCCCCCNC(=O)c1cnc(N(c2ccccc2)c2ccccc2)nc1)NO [Ricolinostat, ACY-1215, Ricolinostat] | – | 0.69 | –
Cc1nc2c3c(c(N[C@H]4CC[C@@](C)(O)CC4)nn2c1-c1ccncc1)OCCN3C [Compound 27, 4-(2,9-Dimethyl-3-pyridin-4-yl-8,9-dihydro-7H-6-oxa-1,3a,4,9-tetraaza-cyclopenta[a]naphthalen-5-ylamino)-1-methyl-cyclohexanol] | 3180 | – | –
Cc1nc2c3c(c(NCC4(F)CCNCC4)nn2c1-c1ccnc(Cl)c1)C[C@@H](C)O3 (single isomer, unassigned) [Compound 34] | – | – | EC50 [4]: < 50 nM; IC50 [1]: 5.87 nM
CC[C@H](Nc1ncnc2[nH]cnc12)c1nc2cccc(F)c2c(=O)n1-c1ccccc1 [CAL-101, IDELALISIB, Idelalisib] | – | 0.67 | –
Cc1nc2c3c(c(N4CCC[C@@H](CN)C4)nn2c1-c1ccnc(Cl)c1)CCCO3 [Compound 3, C-{(S)-1-[3-(2-Chloro-pyridin-4-yl)-2-methyl-7,8-dihydro-6H-9-oxa-1,3a,4-triaza-cyclopenta[a]naphthalen-5-yl]-piperidin-3-yl}-methylamine] | > 10000 | – | –
Cc1ccc(Nc2nccc(N(C)c3ccc4c(C)n(C)nc4c3)n2)cc1S(N)(=O)=O [Pazopanib] | – | 0.57 | –
CC(C)[C@H](O)C(=O)N[C@@H](C)C(=O)N[C@@H]1C(=O)N(C)CCc2ccccc21 [Semagacestat] | – | 0.53 | –
CCN(CC)C(=S)SSC(=S)N(CC)CC [Disulfiram] | – | 0.67 | –
Cc1nc2c3c(c(NCCCCO)nn2c1-c1ccnc(Cl)c1)N(C)CCO3 [Compound 12, 4-[3-(2-Chloro-pyridin-4-yl)-2,6-dimethyl-7,8-dihydro-6H-9-oxa-1,3a,4,6-tetraaza-cyclopenta[a]naphthalen-5-ylamino]-butan-1-ol] | 1810 | – | –
Cc1nc2c3c(c(N4CCCC(CN)C4)nn2c1-c1ccnc(Cl)c1)CCCO3 (centres unmarked) [Compound 2, C-{1-[3-(2-Chloro-pyridin-4-yl)-2-methyl-7,8-dihydro-6H-9-oxa-1,3a,4-triaza-cyclopenta[a]naphthalen-5-yl]-piperidin-3-yl}-methylamine] | 3400 | – | –
NC1(c2ccc(-c3nc4ccn5c(=O)[nH]nc5c4cc3-c3ccccc3)cc2)CCC1 [MK-2206] | – | 0.64 | –
CS(=O)(=O)N1CCN(Cc2cc3nc(-c4cccc5[nH]ncc45)nc(N4CCOCC4)c3s2)CC1 [GDC-0941, Pictilisib] | – | 0.85 | –
CN(NC(=O)CC(=O)NN(C)C(=S)c1ccccc1)C(=S)c1ccccc1 [ELESCLOMOL, Elesclomol] | – | 0.78 | –
Cc1nc2c3c(c(NCC4CCNCC4)nn2c1-c1ccnc(Cl)c1)N(C)CCO3 [Compound 10, [3-(2-Chloro-pyridin-4-yl)-2,6-dimethyl-7,8-dihydro-6H-9-oxa-1,3a,4,6-tetraaza-cyclopenta[a]naphthalen-5-yl]-piperidin-4-ylmethyl-amine] | 1090 | – | –
Cc1nc2c3c(c(NCC4(F)CCNCC4)nn2c1-c1ccncc1)CCCO3 [Compound 6, (4-Fluoro-piperidin-4-ylmethyl)-(2-methyl-3-pyridin-4-yl-7,8-dihydro-6H-9-oxa-1,3a,4-triaza-cyclopenta[a]naphthalen-5-yl)-amine] | 3300 | – | –
Cc1nc2c3c(c(NCC4(F)CCNCC4)nn2c1-c1ccnc(Cl)c1)C[C@H](C)O3 (single isomer, unassigned) [Compound 35] | – | – | EC50 [4]: < 50 nM; IC50 [1]: 20.7 nM
